pIC50: −log10 of the molar value. ≈ marks a conversion by molar mass, not a printed value. Like-named read-outs stand apart in the source and are kept apart here.
Key:
[1] = tested on: CD3/IL2 stimulated PBMC cells; experiment: IFNγ release from CD3/IL2 stimulated PBMC cells (assay (a)); type: cell-based; conditions: Homo sapiens, CD3/IL2 stimulation, 48 h, ELISA
Experimental: (a) IFNγ Release from CD3/IL2 Stimulated PBMC Cells
PBMCs from healthy subjects are separated from whole blood using a density gradient (Lymphoprep, Axis-Shield Healthcare). Cells are added to a 96 well plate, and compound at the desired concentration added 2 hours prior to stimulation with a mixture of monoclonal antibody to CD3 (1 μg/ml, eBioscience) and human recombinant IL2 (10 ng/ml, Peprotech). After 48 hours incubation under normal tissue culture conditions, supernatants are collected and IFNγ release determined by Sandwich ELISA (Duo-set, R&D System). The IC50 is determined from the dose response curve.

[2] = Solubility in fasted-state simulated colonic fluid (FaSSCoF) at pH 6.5; type: physicochemical; conditions: 25 °C, pH 6.5, fassgf or other biorelevant, thermodynamic from solid, pH 6.5, 25° C.
Experimental: The solubilities of compounds of the invention in FaSSCoF at pH 6.5 are determined using a modification of a previously-reported procedure (Vertzoni, M., et al. Pharm. Res. 2010, 27, 2187-2196). In place of the bile salt extract employed in the original procedure (which extract is no longer available), the modified procedure uses a mixture of sodium taurochlorate (0.15 g), glycocholic acid (0.15 g), ursodeoxycholic acid (0.05 g), cholic acid (0.05 g), and glycodeoxycholic acid (0.05 g). These five bile acids are ground together with a mortar and pestle to produce a fine white powder that is incorporated into the FaSSCoF, as outlined below.
Tris(hydroxymethyl)aminomethane (Tris; 0.275 g) and maleic acid (0.44 g) are dissolved in water (35 mL) to give a solution whose pH is adjusted to 6.5 by treatment with 0.5M NaOH (ca. 12 mL). The solution is then made up to 50 mL with water. A portion of this Tris/maleate buffer solution (ca. 25 mL) is added to a 0.5 L round-bottomed flask, before being treated with 0.00565 g of the bile acid mixture described above. Solutions of phosphatidylcholine (0.0111 g) in DCM (0.15 mL) and palmitic acid (0.0013 g) in DCM (0.15 mL) are added, then the organic solvent is evaporated off under reduced pressure at 40° C. until a clear solution, with no perceptible DCM odour, is achieved. The volume of the evaporated solution is adjusted to 50 mL by addition of the remainder of Tris/maleate buffer, then BSA (0.115 g) is added, before being dissolved by gentle agitation.
Test compounds are suspended in the pH 6.5 FaSSCoF medium to give a maximum final concentration of 2-10 mg/mL. The suspensions are equilibrated at 25° C. for 24 h, before being filtered through a glass fibre C filter. The filtrates are then diluted as appropriate for injection and quantification by HPLC with reference to a standard. Different volumes of the standard, diluted and undiluted sample solutions are injected and the solubilities are calculated using the peak areas determined by integration of the peak found at the same retention time as the principal peak in the standard injection.

[3] = tested on: Jurkat cells; experiment: Cell cytotoxicity assay in Jurkat cells (assay (c)); type: cell-based, human; conditions: 24 h, propidium iodide, normalised to DMSO control
Experimental: (c) Cell Cytotoxicity Assay
1×10^5 Jurkat cells (immortalised human T lymphocytes) are added to the appropriate number of wells of a 96 well plate in 100 μL of media (RPMI supplemented with 10% foetal bovine serum). 1 μL of DMSO control (final concentration 1.0% v/v) or test compound (final concentration 20, 5 or 1 μg/mL) is added to the wells and incubated at 37° C., 5% CO2. After 24 hours, the plate is centrifuged at 1200 rpm for 3 minutes and the supernatant discarded. Cells are then resuspended in 150 μL (final concentration 7.5 μg/mL) of propidium iodide (PI) in PBS and incubated at 37° C., 5% CO2 for 15 minutes. After 15 minutes, cells are analysed by flow cytometry (BD accuri) using the FL3 window. The % viability is calculated as the % of cells that are PI negative in the test wells normalised to the DMSO control.

[4] = Run 1, read-out: pH 6.5 FaSSCoF Solubility Run 1
[5] = Run 2, read-out: pH 6.5 FaSSCoF Solubility Run 2

Row | solubility thermodynamic at 24 h [2, 4] [µg/mL] | solubility thermodynamic at 24 h [2, 5] [µg/mL] | Structure (SMILES) | pIC50 [1] | % viability at 1 μg/mL [3] [%]
1 | 10 (≈ 16.4 µM) | 10 (≈ 16.4 µM) | CCc1cc(O)c(F)cc1-c1ccc2c(-c3nc4c([nH]3)CCN(C(=O)c3cnc(N(C)C5CCN(C)CC5)cn3)C4)n[nH]c2c1 [Example 1, (2-(6-(2-Ethyl-5-fluoro-4-hydroxyphenyl)-1H-indazol-3-yl)-1,4,6,7-tetrahydro-5H-imidazo[4,5-c]pyridin-5-yl)(5-(methyl(1-methylpiperidin-4-yl)amino)pyrazin-2-yl)methanone] | 7.65 | 14
2 |  |  | CCc1cc(O)c(F)cc1-c1ccc2c(-c3nc4c([nH]3)CCN(C(=O)c3cnc(N5C[C@H]6CN(C)C[C@H]6C5)cn3)C4)n[nH]c2c1 [Example 2(t), (2-(6-(2-ethyl-5-fluoro-4-hydroxyphenyl)-1H-indazol-3-yl)-6,7-dihydro-1H-imidazo[4,5-c]pyridin-5(4H)-yl)(5-((3aR,6aS)-5-methylhexahydropyrrolo[3,4-c]pyrrol-2(1H)-yl)pyrazin-2-yl)methanone] | 7.82 | 18
3 |  |  | CCc1cc(O)c(F)cc1-c1ccc2c(-c3nc4c([nH]3)CCN(C(=O)c3cnc(N5CCN(CCO)CC5)cn3)C4)n[nH]c2c1 [Example 2(l), (2-(6-(2-ethyl-5-fluoro-4-hydroxyphenyl)-1H-indazol-3-yl)-6,7-dihydro-1H-imidazo[4,5-c]pyridin-5(4H)-yl)(5-(4-(2-hydroxyethyl)piperazin-1-yl)pyrazin-2-yl)methanone] | 8.03 | 10
4 |  |  | CCc1cc(O)c(F)cc1-c1ccc2c(-c3nc4c([nH]3)CCN(C(=O)c3cnc(N(CCOC)CCOC)cn3)C4)n[nH]c2c1 [Example 2(i), (5-(bis(2-methoxyethyl)amino)pyrazin-2-yl)(2-(6-(2-ethyl-5-fluoro-4-hydroxyphenyl)-1H-indazol-3-yl)-1,4,6,7-tetrahydro-5H-imidazo[4,5-c]pyridin-5-yl)methanone] | 7.84 | 53
5 |  |  | CCc1cc(O)c(F)cc1-c1ccc2c(-c3nc4c([nH]3)CCN(C(=O)c3cnc(N5CC[S+]([O-])CC5)cn3)C4)n[nH]c2c1 [Example 2(e), (2-(6-(2-ethyl-5-fluoro-4-hydroxyphenyl)-1H-indazol-3-yl)-1,4,6,7-tetrahydro-5H-imidazo[4,5-c]pyridin-5-yl)(5-(1-oxildothiomorpholino)pyrazin-2-yl)methanone] | 7.24 | 96
6 |  |  | CCc1cc(O)c(F)cc1-c1ccc2c(-c3nc4c([nH]3)CCN(C(=O)c3cnc(N5CC(CO)C5)cn3)C4)n[nH]c2c1 [Example 2(o), (2-(6-(2-ethyl-5-fluoro-4-hydroxyphenyl)-1H-indazol-3-yl)-6,7-dihydro-1H-imidazo[4,5-c]pyridin-5(4H)-yl)(5-(3-(hydroxymethyl)azetidin-1-yl)pyrazin-2-yl)methanone] | 7.65 | 62
7 |  |  | CCc1cc(O)c(F)cc1-c1ccc2c(-c3nc4c([nH]3)CCN(C(=O)c3cnc(NCCOCCOCCOC)cn3)C4)n[nH]c2c1 [Example 2(m), (2-(6-(2-ethyl-5-fluoro-4-hydroxyphenyl)-1H-indazol-3-yl)-6,7-dihydro-1H-imidazo[4,5-c]pyridin-5(4H)-yl)(5-((2-(2-(2-methoxyethoxy)ethoxy)ethyl)amino)pyrazin-2-yl)methanone] | 7.82 | 88
8 |  |  | CCc1cc(O)c(F)cc1-c1ccc2c(-c3nc4c([nH]3)CCN(C(=O)c3cnc(N(C)CCN(C)C(C)=O)cn3)C4)n[nH]c2c1 [Example 2(n), N-(2-((5-(2-(6-(2-ethyl-5-fluoro-4-hydroxyphenyl)-1H-indazol-3-yl)-4,5,6,7-tetrahydro-1H-imidazo[4,5-c]pyridine-5-carbonyl)pyrazin-2-yl)(methy)amino)ethyl)-N-methylacetamide] | 7.53 | 87
9 |  |  | CCc1cc(O)c(F)cc1-c1ccc2c(-c3nc4c([nH]3)CCN(C(=O)c3cnc(NCCN5CCC(O)CC5)cn3)C4)n[nH]c2c1 [Example 2(b), (2-(6-(2-ethyl-5-fluoro-4-hydroxyphenyl)-1H-indazol-3-yl)-1,4,6,7-tetrahydro-5H-imidazo[4,5-c]pyridin-5-yl)(5-((2-(4-hydroxypiperidin-1-yl)ethyl)amino)pyrazin-2-yl)methanone] | 7.06 | 
10 |  |  | CCc1cc(O)c(F)cc1-c1ccc2c(-c3nc4c([nH]3)CCN(C(=O)c3cnc(N5CCN(CCn6ccnc6)CC5)cn3)C4)n[nH]c2c1 [Example 2(j), (5-(4-(2-(1H-imidazol-1-yl)ethyl)piperazin-1-yl)pyrazin-2-yl)(2-(6-(2-ethyl-5-fluoro-4-hydroxyphenyl)-1H-indazol-3-yl)-1,4,6,7-tetrahydro-5H-imidazo[4,5-c]pyridin-5-yl)methanone] | 8.28 | 12
11 | 30 (≈ 51.5 µM) | 40 (≈ 68.7 µM) | CCc1cc(O)c(F)cc1-c1ccc2c(-c3nc4c([nH]3)CCN(C(=O)c3cnc(N5CCC[C@H]5CO)cn3)C4)n[nH]c2c1 [Example 2(h), (S)-(2-(6-(2-ethyl-5-fluoro-4-hydroxyphenyl)-1H-indazol-3-yl)-1,4,6,7-tetrahydro-5H-imidazo[4,5-c]pyridin-5-yl)(5-(2-(hydroxymethyl)pyrrolidin-1-yl)pyrazin-2-yl)methanone] | 7.92 | 56
12 |  |  | CCc1cc(O)c(F)cc1-c1ccc2c(-c3nc4c([nH]3)CCN(C(=O)c3cnc(N(C)CCN5CCCS5(=O)=O)cn3)C4)n[nH]c2c1 [Example 2(v), (5-((2-(1,1-dioxidoisothiazolidin-2-yl)ethyl)(methyl)amino)pyrazin-2-yl)(2-(6-(2-ethyl-5-fluoro-4-hydroxyphenyl)-1H-indazol-3-yl)-6,7-dihydro-1H-imidazo[4,5-c]pyridin-5(4H)-yl)methanone] | 8.12 | 82
13 |  |  | CCc1cc(O)c(F)cc1-c1ccc2c(-c3nc4c([nH]3)CCN(C(=O)c3cnc(N5CCN(CCN(C)C)CC5)cn3)C4)n[nH]c2c1 [Example 2(f), (5-(4-(2-(dimethylamino)ethyl)piperazin-1-yl)pyrazin-2-yl)(2-(6-(2-ethyl-5-fluoro-4-hydroxyphenyl)-1H-indazol-3-yl)-1,4,6,7-tetrahydro-5H-imidazo[4,5-c]pyridin-5-yl)methanone] | 7.31 | 16
14 |  |  | CCc1cc(O)c(F)cc1-c1ccc2c(-c3nc4c([nH]3)CCN(C(=O)c3cnc(NCCS(C)(=O)=O)cn3)C4)n[nH]c2c1 [Example 2(q), (2-(6-(2-ethyl-5-fluoro-4-hydroxyphenyl)-1H-indazol-3-yl)-6,7-dihydro-1H-imidazo[4,5-c]pyridin-5(4H)-yl)(5-((2-(methylsulfonyl)ethyl)amino)pyrazin-2-yl)methanone] | 6.95 | 94
